Legend:
human NOD2 signaling = assay: Inhibition of human NOD2 signaling in HEK-Blue-hNOD2 cells (L18-MDP stimulated, SEAP reporter); type: cell-based; conditions: Homo sapiens, HEK-Blue hNOD2, HEK-Blue-hNOD2 cells, NOD2 ligand stimulation, SEAP reporter; read-out: hNOD2 IC50
Procedure, shortened: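 HEK-Blue-hNOD2 cells (HEK293 with NOD2 and SEAP reporter), 12500/well, treated with 10-point 3-fold compound dilutions plus L18-MDP 0.5 ng/mL final, 24 h at 37 °C. Supernatant SEAP read with QUANTI-Blue after 3 h at 620 nm; IC50 by 4-parameter fit vs DMSO±L18-MDP controls.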

RIPK2 enzyme = target: T1, RIPK2 enzyme (Homo sapiens, UniProt O43353); assay: RIPK2 inhibition (ADP-Glo Kinase Assay); type: biochemical; conditions: RIPK2 5 nM, ATP 150 μM, MBP substrate, read-out: RIPK2 IC50
T1 construct: purchased Carna 09-128
Procedure, shortened: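 Human RIPK2 (5 nM) preincubated with compound 30 min at room temperature in 50 mM HEPES pH 7.5, 10 mM MgCl2, 2 mM DTT, 1 mM EGTA, 0.01% Brij-35, 0.05% BSA; native swine MBP as substrate. ADP formed quantified by ADP-Glo luminescence; percent inhibition relative to DMSO and no-enzyme controls.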

[1] = target: T2, RIPK2 and XIAP protein-protein interaction (Homo sapiens, UniProt O43353); assay: Inhibition of the interaction of RIPK2 with XIAP (NanoBRET in HEK293T cells); type: cell-based; conditions: RIPK2 HaloTag / XIAP NanoLuc, read-out: NanoBRET Scaffolding IC50
T2 construct: the N-terminus of full-length RIPK2 was appended with the HaloTag fusion protein; expressed in transfected cells; host or cells: HEK293T
Description: An assay measuring the RIPK2 and XIAP protein-protein interaction was generated using the NanoBRET protein:protein interaction system (Promega) which measures the energy transfer from a bioluminescent protein donor (NanoLuc fusion protein) to a fluorescent protein acceptor (Halotag fusion protein). In this assay, the C-terminus of full-length XIAP was appended with the NanoLuc fusion protein and the N-terminus of full-length RIPK2 was appended with the HaloTag fusion protein. Assay medium consisted of Opti-MEM I reduced serum medium with no phenol red plus 4% heat inactivated FBS. Transfection reagents were combined in a microfuge tube as follows: 400 μL of assay medium, 8 μL of vector with N-terminus of RIPK2 HaloTag fusion protein (vector concentration at 1 μg/μL), 0.8 μL of vector with C-terminus of XIAP NanoLuc fusion protein (vector concentration at 1 μg/μL), and 24 μL of FuGENE HD transfection reagent (Promega, catalogue number E2312). […] Test compounds were prepared into a 10 mM DMSO solution and were serially diluted into 10 points using a 3-fold dilution in a 384 well plate using a TECAN EV0200.
Method: HEK293T cells were transfected with the RIPK2 HaloTag fusion and XIAP NanoLuc fusion vectors in suspension. […] Transfection reagents were pre-mixed and incubated at room temperature for 30 minutes. Then the total transfection reagent mixture was added dropwise to the 16 mL cell suspension and mixed gently. 40 μL of the cells and transfection reagent suspension was plated into a white 384 well plate and incubated at 37° C. in a CO2 incubator for 24 hours. […] Lastly, a 3× solution of NanoBRET Nano-Glo substrate in Opti-MEM I reduced serum media (no phenol red; 20 μL total volume) was added to each well and incubated for 2-3 minutes at room temperature. The plate was then measured using 460 nm filter (donor emission) and 618 nm filter (acceptor emission) in an EnVision multimode plate reader (PerkinElmer). The NanoBRET ratio values were determined by dividing the acceptor emission value by the donor emission value for each sample.

T2 sequence (O43353 whole entry, the tested form may be a part): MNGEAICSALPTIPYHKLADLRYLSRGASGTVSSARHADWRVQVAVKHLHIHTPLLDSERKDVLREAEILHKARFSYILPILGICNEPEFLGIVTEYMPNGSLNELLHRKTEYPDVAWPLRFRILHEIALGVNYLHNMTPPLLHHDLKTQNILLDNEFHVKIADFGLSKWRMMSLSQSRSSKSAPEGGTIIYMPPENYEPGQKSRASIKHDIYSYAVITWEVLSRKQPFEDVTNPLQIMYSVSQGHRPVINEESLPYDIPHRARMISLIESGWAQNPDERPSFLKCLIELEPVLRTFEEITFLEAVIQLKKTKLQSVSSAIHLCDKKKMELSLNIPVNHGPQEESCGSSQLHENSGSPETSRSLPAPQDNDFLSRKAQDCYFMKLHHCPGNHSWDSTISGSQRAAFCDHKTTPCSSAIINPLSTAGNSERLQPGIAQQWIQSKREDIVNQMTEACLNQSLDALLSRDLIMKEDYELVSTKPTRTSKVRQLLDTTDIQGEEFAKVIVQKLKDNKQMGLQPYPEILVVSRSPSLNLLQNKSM
T1 sequence (O43353 1-299 limits assumed): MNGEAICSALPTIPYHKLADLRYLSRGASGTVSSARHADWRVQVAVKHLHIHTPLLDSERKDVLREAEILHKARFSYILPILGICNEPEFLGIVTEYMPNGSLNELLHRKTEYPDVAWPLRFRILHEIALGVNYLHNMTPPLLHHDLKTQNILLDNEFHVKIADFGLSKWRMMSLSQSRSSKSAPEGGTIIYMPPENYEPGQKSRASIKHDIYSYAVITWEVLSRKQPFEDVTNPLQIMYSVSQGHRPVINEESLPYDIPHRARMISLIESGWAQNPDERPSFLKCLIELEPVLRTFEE

Row | SMILES | IC50 (human NOD2 signaling) | IC50 (RIPK2 enzyme) | IC50 [1]
1 | Cc1cc(CC(=O)Nc2cnn(C(C)(C)C)c2)c(F)cc1Oc1ccnc2ccc(C(=O)N3[C@H](C)CNC[C@@H]3C)cc12 [Compound 470, N-(1-(tert-butyl)-1H-pyrazol-4-yl)-2-(4-((6-((2R,6S)-2,6-dimethylpiperazine-1-carbonyl)quinolin-4-yl)oxy)-2-fluoro-5-methylphenyl)acetamide] | 1.1 nM | < 2.5 nM | 13.1 nM
2 | Cc1cc(CC(=O)Nc2cnn(C(C)(C)C)c2)c(F)cc1Oc1ccnc2ccc(-c3nccnc3C(F)(F)F)cc12 [Compound 523, N-(1-(tert-butyl)-1H-pyrazol-4-yl)-2-(2-fluoro-5-methyl-4-((6-(3-(trifluoromethyl)pyrazin-2-yl)quinolin-4-yl)oxy)phenyl)acetamide] | 18.5 nM | 4.9 nM | 133 nM
3 | CNC(=O)c1cc2c(Oc3c(C)cc(CC(=O)Nc4cnn(C(C)(C)C)c4)cc3C)ccnc2cc1F [Compound 582, 4-(4-(2-((1-(tert-butyl)-1H-pyrazol-4-yl)amino)-2-oxoethyl)-2,6-dimethylphenoxy)-7-fluoro-N-methylquinoline-6-carboxamide] | 0.6 nM | < 2.5 nM | 36.3 nM
4 | CNCc1nnc(-c2ccc3nccc(Oc4cc(F)c(CC(=O)Nc5cnn(C(C)(C)C)c5)cc4C)c3c2)o1 [Compound 481, N-(1-(tert-butyl)-1H-pyrazol-4-yl)-2-(2-fluoro-5-methyl-4-((6-(5-((methylamino)methyl)-1,3,4-oxadiazol-2-yl)quinolin-4-yl)oxy)phenyl)acetamide] | 4.2 nM | < 2.5 nM | 4.5 nM
5 | Cc1cc(CC(=O)Nc2cnn(C(C)(C)C)c2)c(F)cc1Oc1ccnc2cc(C)c(S(C)(=O)=O)cc12 [Compound 496, N-(1-(tert-butyl)-1H-pyrazol-4-yl)-2-(2-fluoro-5-methyl-4-((7-methyl-6-(methylsulfonyl)quinolin-4-yl)oxy)phenyl)acetamide] | 0.5 nM | < 2.5 nM | 127 nM
6 | Cc1cc(CC(=O)Nc2cnn(C(C)(C)C)c2)ccc1Oc1ccnc2ccc(CS(C)(=O)=O)cc12 [Compound 560, N-(1-(tert-butyl)-1H-pyrazol-4-yl)-2-(3-methyl-4-((6-((methylsulfonyl)methyl)quinolin-4-yl)oxy)phenyl)acetamide] | 8.9 nM | < 2.5 nM | 301 nM
7 | Cc1cc(CC(=O)Nc2cnn(C(C)(C)C)c2)cc(Cl)c1Oc1ccnc2ccc(C(N)=O)cc12 [Compound 516, 4-(4-(2-((1-(tert-butyl)-1H-pyrazol-4-yl)amino)-2-oxoethyl)-2-chloro-6-methylphenoxy)quinoline-6-carboxamide] | 1 nM | < 2.5 nM | 103 nM
8 | Cc1cc(CC(=O)Nc2cnn(C(C)(C)C)c2)ccc1Oc1ccnc2cc(C)c(S(C)(=O)=O)cc12 [Compound 495, N-(1-(tert-butyl)-1H-pyrazol-4-yl)-2-(3-methyl-4-((7-methyl-6-(methylsulfonyl)quinolin-4-yl)oxy)phenyl)acetamide] | 0.5 nM | < 2.5 nM | 70.8 nM
9 | Cc1cc(CC(=O)Nc2cnn(C(C)(C)C)c2)c(F)cc1Oc1ccnc2ccc(-c3c[nH]nc3C)cc12 [Compound 479, N-(1-(tert-butyl)-1H-pyrazol-4-yl)-2-(2-fluoro-5-methyl-4-((6-(3-methyl-1H-pyrazol-4-yl)quinolin-4-yl)oxy)phenyl)acetamide] | 1.4 nM | < 2.5 nM | 5.8 nM
10 | Cc1cc(CC(=O)Nc2cnn(C34CC(C3)C4)c2)ccc1Oc1ccnc2ccc(S(=N)(=O)C3CC3)cc12 (single isomer, unassigned) [Compound 529, N-(1-(bicyclo[1.1.1]pentan-1-yl)-1H-pyrazol-4-yl)-2-(4-((6-(cyclopropanesul-fonimidoyl)quinolin-4-yl)oxy)-3-methylphenyl) acetamide] | 14.3 nM | < 2.5 nM | 75 nM

Now from value to molecule:

Row | IC50 (human NOD2 signaling) | IC50 (RIPK2 enzyme) | IC50 [1] | SMILES
11 | 0.3 nM | < 2.5 nM | 35.1 nM | CNC(=O)c1ccc2nccc(Oc3cc(F)c(CC(=O)Nc4cnn(C56CC(C5)C6)c4)c(F)c3C)c2c1 [Compound 557, 4-(4-(2-((1-(bicyclo[1.1.1]pentan-1-yl)-1H-pyrazol-4-yl)amino)-2-oxoethyl)-3,5-difluoro-2-methylphenoxy)-N-methylquinoline-6-carboxamide]
12 | 11.1 nM | < 2.5 nM | 459 nM | Cc1cc(CC(=O)Nc2cnn(C(C)(C)C)c2)c(F)cc1Oc1ccnc2ccc(CC(N)=O)cc12 [Compound 566, 2-(4-((6-(2-amino-2-oxoethyl)quinolin-4-yl)oxy)-2-fluoro-5-methylphenyl)-N-(1-(tert-butyl)-1H-pyrazol-4-yl)acetamide]
13 | 24.4 nM | < 2.5 nM | 179 nM | Cc1cc(CC(=O)Nc2cnn(C(C)(C)C)c2)c(F)cc1Oc1ccnc2ccc(C(C)(C)C(N)=O)cc12 [Compound 568, 2-(4-(4-(2-((1-(tert-butyl)-1H-pyrazol-4-yl)amino)-2-oxoethyl)-5-fluoro-2-methylphenoxy)quinolin-6-yl)-2-methylpropanamide]
14 | 0.1 nM | < 2.5 nM | 24.2 nM | CNC(=O)c1cc2c(Oc3ccc(CC(=O)Nc4cnn(C(C)(C)C)c4)cc3C)ccnc2cc1F [Compound 490, 4-(4-(2-((1-(tert-butyl)-1H-pyrazol-4-yl)amino)-2-oxoethyl)-2-methylphenoxy)-7-fluoro-N-methylquinoline-6-carboxamide]
15 | 3.5 nM | < 2.5 nM | 128 nM | Cc1cc(CC(=O)Nc2cnn(C(C)(C)C)c2)cc(C)c1Oc1ccnc2ccc(C(N)=O)cc12 [Compound 505, 4-(4-(2-((1-(tert-butyl)-1H-pyrazol-4-yl)amino)-2-oxoethyl)-2,6-dimethylphenoxy)quinoline-6-carboxamide]
16 | 2.4 nM | < 2.5 nM | 57.6 nM | [2H]C([2H])([2H])NC(=O)c1ccc2nccc(Oc3cc(F)c(CC(=O)Nc4cnn(C56CC(C5)C6)c4)cc3C([2H])([2H])[2H])c2c1 (single isomer, unassigned) [Compound 512, 4-(4-(2-((1-(bicyclo[1.1.1]pentan-1-yl)-1H-pyrazol-4-yl)amino)-2-oxoethyl)-5-fluoro-2-(methyl-d3)phenoxy)-N-(methyl-d3)quinoline-6-carboxamide]
17 | 1.9 nM | < 2.5 nM | 176 nM | [2H]C([2H])([2H])NC(=O)c1ccc2nccc(Oc3cc(F)c(CC(=O)Nc4cnn(C56CC(C5)C6)c4)cc3C)c2c1 (single isomer, unassigned) [Compound 563, 4-(4-(2-((1-(bicyclo[1.1.1]pentan-1-yl)-1H-pyrazol-4-yl)amino)-2-oxoethyl)-5-fluoro-2-methylphenoxy)-N-(methyl-d3)quinoline-6-carboxamide]
18 | 0.1 nM | < 2.5 nM | 7.3 nM | [2H]C([2H])([2H])NC(=O)c1ccc2nccc(Oc3cc(F)c(CC(=O)Nc4cnn(C(C)(C)C)c4)c(F)c3C)c2c1 (single isomer, unassigned) [Compound 555, 4-(4-(2-((1-(tert-butyl)-1H-pyrazol-4-yl)amino)-2-oxoethyl)-3,5-difluoro-2-methylphenoxy)-N-(methyl-d3)quinoline-6-carboxamide]

— patent US12624018B1, “Inhibitors of RIPK2 and medical uses thereof” (Odyssey Therapeutics, Inc., priority 2022, dated 2026)
